Test results taken from the kinase profiling compilation of Christmann-Franck et al. (2016).
Blank lines part the entries; values can stand above or below the molecule they belong to.

Tests used:
Experiment in all cases: radiometric filter-binding kinase assay
[1] = molecular target: PRKACA (human) (UniProt P17612)
[2] = molecular target: CSNK2A1 (human) (UniProt P68400)
[3] = molecular target: CHEK1 (human) (UniProt O14757)
[4] = molecular target: AURKA (human) (UniProt O14965)
[5] = molecular target: PHKG1 (human) (UniProt Q16816)
[6] = tested on: PAK2 (human), Q13177 [T402E]
[7] = molecular target: INSRR (human) (UniProt P14616)
[8] = molecular target: DYRK2 (human) (UniProt Q92630)
[9] = molecular target: FLT1 (human) (UniProt P17948)
[10] = molecular target: MAPKAPK5 (human) (UniProt Q8IW41)
[11] = molecular target: MAP2K2 (human) (UniProt P36507)
[12] = molecular target: CDK2 CCNA2 (human) (UniProt P20248+P24941)
[13] = molecular target: MAPKAPK3 (human) (UniProt Q16644)
[14] = molecular target: TAOK1 (human) (UniProt Q7L7X3)
[15] = molecular target: ERBB4 (human) (UniProt Q15303)
[16] = molecular target: MINK1 (human) (UniProt Q8N4C8)
[17] = molecular target: MAPK15 (human) (UniProt Q8TD08)
[18] = molecular target: FGFR1 (human) (UniProt P11362)
[19] = molecular target: PRKCA (human) (UniProt P17252)
[20] = molecular target: GCK (human) (UniProt Q12851)
[21] = molecular target: MAPK12 (human) (UniProt P53778)
[22] = molecular target: MAPK10 (human) (UniProt P53779)
[23] = molecular target: BRSK1 (human) (UniProt Q8TDC3)
[24] = molecular target: EEF2K (human) (UniProt O00418)
[25] = molecular target: RPS6KA3 KD1 KD2 (human) (UniProt P51812)
[26] = tested on: SGK1 (human), O00141 [S422D]
[27] = molecular target: AURKB (human) (UniProt Q96GD4)
[28] = molecular target: MELK (human) (UniProt Q14680)
[29] = molecular target: PIM2 (human) (UniProt Q9P1W9)
[30] = molecular target: SRPK1 (human) (UniProt Q96SB4)
[31] = molecular target: MST4 (human) (UniProt Q9P289)
[32] = molecular target: RIPK2 (human) (UniProt O43353)
[33] = molecular target: EPHA2 (human) (UniProt P29317)
[34] = molecular target: BTK (human) (UniProt Q06187)
[35] = molecular target: MAP2K6 (human) (UniProt P52564)
[36] = molecular target: PIM3 (human) (UniProt Q86V86)

FGFR1 (human), sequence (P11362 whole entry, looked up): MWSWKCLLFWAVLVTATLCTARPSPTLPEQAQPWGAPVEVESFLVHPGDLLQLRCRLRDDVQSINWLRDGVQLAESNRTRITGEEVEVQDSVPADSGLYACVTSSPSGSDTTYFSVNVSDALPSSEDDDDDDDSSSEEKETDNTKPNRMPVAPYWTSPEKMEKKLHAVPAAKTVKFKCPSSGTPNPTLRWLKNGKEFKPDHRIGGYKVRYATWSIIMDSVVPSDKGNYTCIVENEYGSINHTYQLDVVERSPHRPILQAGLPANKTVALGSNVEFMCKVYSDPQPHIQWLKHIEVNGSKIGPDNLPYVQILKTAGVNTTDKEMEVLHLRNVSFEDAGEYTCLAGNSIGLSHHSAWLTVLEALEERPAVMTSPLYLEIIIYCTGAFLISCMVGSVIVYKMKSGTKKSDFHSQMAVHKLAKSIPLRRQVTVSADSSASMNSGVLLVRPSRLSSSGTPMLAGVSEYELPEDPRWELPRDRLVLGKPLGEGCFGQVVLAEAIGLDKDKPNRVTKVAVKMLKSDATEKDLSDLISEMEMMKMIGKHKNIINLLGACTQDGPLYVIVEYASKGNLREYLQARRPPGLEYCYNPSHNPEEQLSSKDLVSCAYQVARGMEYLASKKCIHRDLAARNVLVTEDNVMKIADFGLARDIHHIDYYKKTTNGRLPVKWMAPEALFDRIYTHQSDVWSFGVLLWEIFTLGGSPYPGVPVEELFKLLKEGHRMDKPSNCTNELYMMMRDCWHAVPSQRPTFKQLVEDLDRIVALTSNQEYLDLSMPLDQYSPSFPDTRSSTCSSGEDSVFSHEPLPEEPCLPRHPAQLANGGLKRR
MAPKAPK3 (human), sequence (Q16644 whole entry, looked up): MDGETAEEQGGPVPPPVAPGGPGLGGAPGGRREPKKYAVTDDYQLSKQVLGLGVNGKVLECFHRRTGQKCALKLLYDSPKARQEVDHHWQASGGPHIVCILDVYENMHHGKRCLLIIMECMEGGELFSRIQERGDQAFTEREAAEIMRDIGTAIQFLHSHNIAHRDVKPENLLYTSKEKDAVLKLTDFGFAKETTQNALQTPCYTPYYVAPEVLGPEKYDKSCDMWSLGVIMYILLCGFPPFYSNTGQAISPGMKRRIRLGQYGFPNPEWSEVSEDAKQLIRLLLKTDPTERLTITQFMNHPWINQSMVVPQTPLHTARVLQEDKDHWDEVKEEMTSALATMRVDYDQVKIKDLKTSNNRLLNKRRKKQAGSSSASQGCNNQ
DYRK2 (human), sequence (Q92630 whole entry, looked up): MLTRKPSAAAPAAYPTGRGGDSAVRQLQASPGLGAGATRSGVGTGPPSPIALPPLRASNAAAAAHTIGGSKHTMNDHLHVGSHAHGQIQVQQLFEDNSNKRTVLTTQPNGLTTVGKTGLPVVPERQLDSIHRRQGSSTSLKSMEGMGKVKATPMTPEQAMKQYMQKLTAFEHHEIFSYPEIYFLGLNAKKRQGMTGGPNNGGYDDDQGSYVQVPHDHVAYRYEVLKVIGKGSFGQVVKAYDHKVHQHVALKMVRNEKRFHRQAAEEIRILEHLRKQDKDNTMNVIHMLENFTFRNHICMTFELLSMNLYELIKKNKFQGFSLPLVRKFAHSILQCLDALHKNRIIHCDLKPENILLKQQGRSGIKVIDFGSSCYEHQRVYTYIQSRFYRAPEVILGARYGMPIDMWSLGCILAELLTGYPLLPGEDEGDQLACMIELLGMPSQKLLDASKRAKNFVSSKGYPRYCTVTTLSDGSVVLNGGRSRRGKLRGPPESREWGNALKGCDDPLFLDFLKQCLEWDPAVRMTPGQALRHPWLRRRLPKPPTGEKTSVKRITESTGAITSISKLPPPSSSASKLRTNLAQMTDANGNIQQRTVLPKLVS
PAK2 (human), Q13177 [T402E], sequence (Q13177 whole entry T402E, looked up): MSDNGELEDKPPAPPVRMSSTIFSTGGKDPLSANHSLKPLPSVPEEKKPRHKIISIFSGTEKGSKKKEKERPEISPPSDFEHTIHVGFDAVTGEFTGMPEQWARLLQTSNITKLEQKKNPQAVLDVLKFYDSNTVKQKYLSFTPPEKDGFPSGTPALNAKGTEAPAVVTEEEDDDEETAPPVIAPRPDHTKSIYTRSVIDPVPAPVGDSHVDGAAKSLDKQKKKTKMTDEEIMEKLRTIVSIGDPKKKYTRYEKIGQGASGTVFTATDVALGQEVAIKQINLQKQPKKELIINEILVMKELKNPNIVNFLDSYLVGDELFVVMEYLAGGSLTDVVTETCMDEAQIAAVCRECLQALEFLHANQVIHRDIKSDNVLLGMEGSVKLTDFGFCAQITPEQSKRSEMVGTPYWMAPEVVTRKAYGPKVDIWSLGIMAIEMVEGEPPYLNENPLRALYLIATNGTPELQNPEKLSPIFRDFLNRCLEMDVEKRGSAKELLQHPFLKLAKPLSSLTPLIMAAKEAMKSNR
MAPK12 (human), sequence (P53778 whole entry, looked up): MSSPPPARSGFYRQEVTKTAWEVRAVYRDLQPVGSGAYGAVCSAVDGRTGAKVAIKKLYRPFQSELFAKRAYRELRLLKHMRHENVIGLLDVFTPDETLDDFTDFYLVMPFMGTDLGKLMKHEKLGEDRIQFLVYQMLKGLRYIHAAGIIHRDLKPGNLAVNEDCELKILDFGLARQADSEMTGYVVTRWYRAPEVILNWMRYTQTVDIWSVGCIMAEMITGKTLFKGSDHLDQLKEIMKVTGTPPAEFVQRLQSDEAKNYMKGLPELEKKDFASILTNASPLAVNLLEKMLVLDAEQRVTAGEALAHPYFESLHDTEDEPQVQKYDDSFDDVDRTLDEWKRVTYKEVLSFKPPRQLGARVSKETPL
MST4 (human), sequence (Q9P289 whole entry, looked up): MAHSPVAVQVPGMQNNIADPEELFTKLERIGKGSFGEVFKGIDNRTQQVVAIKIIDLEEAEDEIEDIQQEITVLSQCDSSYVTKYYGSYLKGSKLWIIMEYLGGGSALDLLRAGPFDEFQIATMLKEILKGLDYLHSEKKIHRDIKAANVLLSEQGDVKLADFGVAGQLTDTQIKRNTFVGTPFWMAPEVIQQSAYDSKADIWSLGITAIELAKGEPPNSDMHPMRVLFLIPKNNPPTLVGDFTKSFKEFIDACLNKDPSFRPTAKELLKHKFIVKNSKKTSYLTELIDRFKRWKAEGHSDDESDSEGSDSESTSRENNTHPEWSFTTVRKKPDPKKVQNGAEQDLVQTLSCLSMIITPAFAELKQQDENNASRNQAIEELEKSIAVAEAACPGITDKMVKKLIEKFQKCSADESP
PHKG1 (human), sequence (Q16816 whole entry, looked up): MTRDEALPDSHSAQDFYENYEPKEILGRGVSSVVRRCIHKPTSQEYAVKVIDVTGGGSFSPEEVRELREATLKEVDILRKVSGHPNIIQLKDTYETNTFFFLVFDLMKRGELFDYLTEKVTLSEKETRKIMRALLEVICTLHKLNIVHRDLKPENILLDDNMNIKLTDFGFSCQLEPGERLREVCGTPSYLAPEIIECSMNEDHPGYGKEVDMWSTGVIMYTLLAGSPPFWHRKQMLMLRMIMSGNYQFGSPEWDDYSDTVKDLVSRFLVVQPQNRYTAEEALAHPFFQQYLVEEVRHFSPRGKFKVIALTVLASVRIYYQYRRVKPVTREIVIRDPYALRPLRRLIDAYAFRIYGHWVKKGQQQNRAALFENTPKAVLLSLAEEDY
MAPK15 (human), sequence (Q8TD08 whole entry, looked up): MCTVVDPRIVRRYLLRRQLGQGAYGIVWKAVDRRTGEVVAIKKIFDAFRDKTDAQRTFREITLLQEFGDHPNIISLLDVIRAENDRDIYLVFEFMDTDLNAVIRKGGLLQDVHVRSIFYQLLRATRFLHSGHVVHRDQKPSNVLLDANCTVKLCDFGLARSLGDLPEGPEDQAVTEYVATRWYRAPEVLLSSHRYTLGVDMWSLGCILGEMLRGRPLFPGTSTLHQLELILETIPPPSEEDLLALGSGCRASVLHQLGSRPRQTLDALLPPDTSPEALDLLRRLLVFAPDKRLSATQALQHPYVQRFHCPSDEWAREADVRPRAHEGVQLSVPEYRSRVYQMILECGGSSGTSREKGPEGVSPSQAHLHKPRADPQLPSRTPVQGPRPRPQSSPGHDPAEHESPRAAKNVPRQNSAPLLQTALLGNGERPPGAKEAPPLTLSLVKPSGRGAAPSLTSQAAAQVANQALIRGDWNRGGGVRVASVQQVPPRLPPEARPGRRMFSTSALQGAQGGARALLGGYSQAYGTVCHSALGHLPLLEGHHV

residual activity ([1]; compound 10.0 µM): 101% | residual activity ([1]; compound 100.0 µM): 70% | residual activity ([2]; compound 10.0 µM): 110% | residual activity ([2]; compound 100.0 µM): 101% | residual activity ([3]; compound 10.0 µM): 90% | residual activity ([3]; compound 100.0 µM): 96% | residual activity ([4]; compound 10.0 µM): 99% | residual activity ([5]; compound 10.0 µM): 114% | residual activity ([5]; compound 100.0 µM): 86% | residual activity ([6]; compound 10.0 µM): 87% | residual activity ([7]; compound 10.0 µM): 88% | residual activity ([8]; compound 10.0 µM): 76% | residual activity ([9]; compound 10.0 µM): 85% | residual activity ([10]; compound 10.0 µM): 82% | residual activity ([10]; compound 100.0 µM): 64% | residual activity ([11]; compound 10.0 µM): 81% | residual activity ([12]; compound 10.0 µM): 116% | residual activity ([12]; compound 100.0 µM): 92% | residual activity ([13]; compound 10.0 µM): 86% | residual activity ([14]; compound 10.0 µM): 82% | residual activity ([15]; compound 10.0 µM): 87% | residual activity ([16]; compound 10.0 µM): 72% | residual activity ([18]; compound 10.0 µM): 118% | residual activity ([19]; compound 10.0 µM): 103% | residual activity ([19]; compound 100.0 µM): 75% | residual activity ([20]; compound 10.0 µM): 97% | residual activity ([21]; compound 10.0 µM): 99% | residual activity ([21]; compound 100.0 µM): 80% | residual activity ([22]; compound 10.0 µM): 99% | residual activity ([23]; compound 10.0 µM): 106% | residual activity ([24]; compound 10.0 µM): 83% | residual activity ([25]; compound 10.0 µM): 72% | residual activity ([26]; compound 10.0 µM): 101% | residual activity ([26]; compound 100.0 µM): 60% | residual activity ([27]; compound 10.0 µM): 88% | residual activity ([28]; compound 10.0 µM): 96% | residual activity ([29]; compound 10.0 µM): 93% | residual activity ([30]; compound 10.0 µM): 88% | residual activity ([31]; compound 10.0 µM): 99% | residual activity ([32]; compound 10.0 µM): 90% | residual activity ([33]; compound 10.0 µM): 109% | residual activity ([34]; compound 10.0 µM): 82% | residual activity ([35]; compound 10.0 µM): 94% | residual activity ([36]; compound 10.0 µM): 83%
SMILES: Cc1ccc2c(c1)C(=O)[C@@]1(O)CCN(c3ccccc3)C1=N2
residual activity ([17]; compound 10.0 µM): 89%

residual activity ([1]; compound 1.0 µM): 100% | residual activity ([1]; compound 10.0 µM): 102% | residual activity ([2]; compound 10.0 µM): 106% | residual activity ([3]; compound 1.0 µM): 95% | residual activity ([3]; compound 10.0 µM): 84% | residual activity ([4]; compound 1.0 µM): 87% | residual activity ([4]; compound 10.0 µM): 22% | residual activity ([5]; compound 1.0 µM): 108% | residual activity ([5]; compound 10.0 µM): 62% | residual activity ([6]; compound 1.0 µM): 92% | residual activity ([6]; compound 10.0 µM): 96% | residual activity ([7]; compound 1.0 µM): 97% | residual activity ([7]; compound 10.0 µM): 52% | residual activity ([8]; compound 1.0 µM): 109% | residual activity ([8]; compound 10.0 µM): 86% | residual activity ([9]; compound 1.0 µM): 45% | residual activity ([9]; compound 10.0 µM): 9% | residual activity ([10]; compound 1.0 µM): 96% | residual activity ([10]; compound 10.0 µM): 62% | residual activity ([11]; compound 1.0 µM): 93% | residual activity ([11]; compound 10.0 µM): 74% | residual activity ([12]; compound 1.0 µM): 89% | residual activity ([12]; compound 10.0 µM): 48% | residual activity ([13]; compound 1.0 µM): 100% | residual activity ([13]; compound 10.0 µM): 93% | residual activity ([14]; compound 1.0 µM): 87% | residual activity ([14]; compound 10.0 µM): 69% | residual activity ([15]; compound 1.0 µM): 106% | residual activity ([15]; compound 10.0 µM): 98% | residual activity ([16]; compound 1.0 µM): 80% | residual activity ([16]; compound 10.0 µM): 37% | residual activity ([18]; compound 1.0 µM): 105% | residual activity ([18]; compound 10.0 µM): 46% | residual activity ([19]; compound 1.0 µM): 93% | residual activity ([19]; compound 10.0 µM): 86% | residual activity ([20]; compound 1.0 µM): 69% | residual activity ([20]; compound 10.0 µM): 17% | residual activity ([21]; compound 1.0 µM): 93% | residual activity ([21]; compound 10.0 µM): 94% | residual activity ([22]; compound 1.0 µM): 94% | residual activity ([22]; compound 10.0 µM): 84% | residual activity ([23]; compound 1.0 µM): 97% | residual activity ([23]; compound 10.0 µM): 90% | residual activity ([24]; compound 1.0 µM): 97% | residual activity ([24]; compound 10.0 µM): 90% | residual activity ([25]; compound 1.0 µM): 107% | residual activity ([25]; compound 10.0 µM): 89% | residual activity ([26]; compound 1.0 µM): 109% | residual activity ([26]; compound 10.0 µM): 107% | residual activity ([27]; compound 1.0 µM): 79% | residual activity ([27]; compound 10.0 µM): 62% | residual activity ([28]; compound 1.0 µM): 71% | residual activity ([28]; compound 10.0 µM): 44% | residual activity ([29]; compound 1.0 µM): 98% | residual activity ([29]; compound 10.0 µM): 92% | residual activity ([30]; compound 1.0 µM): 97% | residual activity ([30]; compound 10.0 µM): 93% | residual activity ([31]; compound 1.0 µM): 100% | residual activity ([31]; compound 10.0 µM): 57% | residual activity ([32]; compound 1.0 µM): 86% | residual activity ([32]; compound 10.0 µM): 36% | residual activity ([33]; compound 1.0 µM): 87% | residual activity ([33]; compound 10.0 µM): 52% | residual activity ([34]; compound 1.0 µM): 90% | residual activity ([34]; compound 10.0 µM): 68% | residual activity ([35]; compound 1.0 µM): 109% | residual activity ([35]; compound 10.0 µM): 99% | residual activity ([36]; compound 1.0 µM): 111% | residual activity ([36]; compound 10.0 µM): 68%
SMILES: NC(=O)c1c(NC(=O)C2CC2)sc2c1CCCC2
residual activity ([17]; compound 1.0 µM): 106% | residual activity ([17]; compound 10.0 µM): 67%
